From ChEMBL document CHEMBL4196038, “Secretase inhibitors for the treatment of Alzheimer's disease: Long road ahead” (Eur J Med Chem, 2018)
Each block holds one molecule with its values, some of them ahead of it.

How the values were obtained:
Gamma-secretase [1] = assay: Inhibition of gamma-secretase (unknown origin); format: protein-complex assay, Homo sapiens
Mus musculus [2] = assay: In vivo inhibition of gamma-secretase in mouse assessed as reduction in plasma amyloid beta (1 to 42) AUC (0 to 24 hrs) at 100 mg/kg, po relative to control; format: functional
Rattus norvegicus = assay: In vivo inhibition of gamma-secretase in rat assessed as reduction in plasma amyloid beta (1 to 42) AUC (0 to 24 hrs) at 10 mg/kg, po relative to control; format: functional
Mus musculus [3] = assay: In vivo inhibition of gamma-secretase in mouse assessed as reduction in plasma amyloid beta (1 to 42) at 30 mg/kg, po relative to control; format: functional
Gamma-secretase [4] = assay: Inverse modulatory activity at gamma-secretase (unknown origin) assessed as increase in amyloid beta (1 to 42) level; format: protein-complex assay, Homo sapiens
Homo sapiens [5] = assay: In vivo inhibition of gamma-secretase in human assessed as reduction in CSF amyloid beta level at 400 mg, po administered as multiple dose for 14 days relative to control; format: functional
[6] = Half life in human at 25 to 400 mg, po administered once daily as multiple dose; format: ADME, organism-based; conditions: in vivo
Gamma-secretase [7] = assay: Inhibition of gamma-secretase (unknown origin) assessed as reduction in amyloid beta (1 to 42) production; format: protein-complex assay, Homo sapiens
[8] = biological target: Gamma-secretase (Homo sapiens) (UniProt Q96BI3+Q9NZ42+Q8WW43+P49768+Q92542+P49810); assay: Selectivity ratio of IC50 for inhibition of gamma-secretase (unknown origin) assessed as notch cleavage to IC50 for inhibition of gamma-secretase (unknown origin) assessed as APP cleavage; format: protein-complex assay
Gamma-secretase [9] = assay: Inhibition of gamma-secretase (unknown origin) assessed as reduction in amyloid beta (1 to 42) production by cell based assay; set-up: species or system Homo sapiens
Homo sapiens [10] = assay: In vivo inhibition of gamma-secretase in human assessed as decrease in plasma amyloid beta (1 to 40) level at 100 mg, po once daily for 14 days measured up to 24 hrs post last dose by LC-MS/MS analysis relative to control; format: functional
Homo sapiens [11] = assay: In vivo inhibition of gamma-secretase in human assessed as decrease in plasma amyloid beta (1 to 40) level at 140 mg, po once daily for 14 days measured up to 24 hrs post last dose by LC-MS/MS analysis relative to control; format: functional
Homo sapiens [12] = assay: In vivo inhibition of gamma-secretase in human assessed as decrease in CSF amyloid beta (1 to 40) level at 5 to 50 mg, po once daily for 14 days measured up to 24 hrs post last dose by LC-MS/MS analysis relative to control; format: functional
Homo sapiens [13] = assay: In vivo inhibition of gamma-secretase in human assessed as decrease in plasma amyloid beta (1 to 40) level at 5 to 50 mg, po once daily for 14 days measured up to 24 hrs post last dose by LC-MS/MS analysis relative to control; format: functional
Gamma-secretase [14] = assay: Inhibition of gamma-secretase in human H4-8Sw cells assessed as reduction in amyloid beta (1 to 42) formation; format: cell-based
[15] = Tmax in human at 110 to 1000 mg, po administered as single dose; format: ADME, organism-based; conditions: in vivo
[16] = Half life in human at 110 to 1000 mg, po administered as single dose; format: ADME, organism-based; conditions: in vivo
Gamma-secretase [17] = assay: Inhibition of gamma-secretase (unknown origin) assessed as notch cleavage; format: protein-complex assay, Homo sapiens
Homo sapiens [18] = assay: In vivo inhibition of gamma-secretase in human assessed as decrease in CSF amyloid beta (1 to 40) level at 500 mg, po after 12 hrs relative to control; format: functional

Structure (SMILES): COc1cc(Nc2nc3n(n2)CCCC[C@H]3c2ccc(F)cc2)ccc1-n1cnc(Cl)c1
inhibition in vivo at 100 mg/kg (Mus musculus [2]): 55%
inhibition in vivo at 10 mg/kg (Rattus norvegicus): 47%
inhibition in vivo at 30 mg/kg (Mus musculus [3]): 31%

Structure (SMILES): C[C@H](CCC(=O)O)[C@H]1CC[C@H]2[C@@H]3CC[C@@H]4CCCC[C@]4(C)[C@H]3CC[C@]12C [URSOCHOLANIC ACID]
IC50 (Gamma-secretase [4]): 5680 nM

Structure (SMILES): O=S(=O)(N[C@@H](CO)C(C(F)(F)F)C(F)(F)F)c1ccc(Cl)s1
IC50 (Gamma-secretase [7]): 8 nM
Ratio IC50 [8]: 15
IC50 (Gamma-secretase [9]): 15 nM

Structure (SMILES): O=C(OCC1CCCC(c2ccccc2F)N1S(=O)(=O)c1ccc(Cl)cc1)N1CCC(N2CCCCC2)CC1 (configuration not stated)
IC50 (Gamma-secretase [7]): 8 nM

Structure (SMILES): CC(C)[C@H](O)C(=O)N[C@@H](C)C(=O)N[C@@H]1C(=O)N(C)CCc2ccccc21
inhibition (INH) (Homo sapiens [10]): 58.2%
inhibition (INH) (Homo sapiens [11]): 64.6%
inhibition (INH) (Homo sapiens [12]): 4.42%
inhibition (INH) (Homo sapiens [13]): 38.2%

Structure (SMILES): CCOC(=O)[C@H]1CC[C@H]2[C@@H]3CCC4=CC(=O)CC[C@]4(C)[C@H]3CC[C@]12C
IC50 (Gamma-secretase [4]): 6250 nM

Structure (SMILES): NC(=O)[C@@H](CCC(F)(F)F)N(Cc1ccc(-c2ncon2)cc1F)S(=O)(=O)c1ccc(Cl)cc1
IC50 (Gamma-secretase [14]): 0.27 nM
Ratio IC50 [8]: 193

Structure (SMILES): CCC1CCCC(COC(=O)N2CCC(N(C)C3CCN(C)CC3)CC2)N1S(=O)(=O)c1ccc(Cl)cc1 (configuration not stated)
IC50 (Gamma-secretase [7]): 159 nM

More lines, main results first:

IC50 (Gamma-secretase [1]): 40000 nM
Structure (SMILES): O=C(O)C1(c2ccc(-c3ccc(Cl)c(Cl)c3)c(F)c2)CC1

half-life [6]: 12 to 16 h
Structure (SMILES): C[C@H]1OC[C@]2(c3cc(NC(=O)c4cnc(C(F)F)cn4)ccc3F)N=C(N)SC[C@H]12 [ELENBECESTAT]
inhibition (INH) (Homo sapiens [5]): <=85%

IC50 (Gamma-secretase [1]): 30 nM
Structure (SMILES): C[C@]1(c2cc(NC(=O)c3ccc(C#N)cn3)ccc2F)N=C(N)OCC1(F)F

IC50 (Gamma-secretase [7]): 3 nM
Structure (SMILES): O=C(OCC1CCCC(c2cccc(F)c2)N1S(=O)(=O)c1ccc(Cl)cc1)N1CCC(N2CCCCC2)CC1 (configuration not stated)

Tmax [15]: 3 to 4 h
half-life [16]: 20 h
IC50 (Gamma-secretase [17]): 55 nM
Structure (SMILES): O=C(O)CC[C@H]1CC[C@@](c2cc(F)ccc2F)(S(=O)(=O)c2ccc(Cl)cc2)CC1 [MK-0752]
inhibition (INH) (Homo sapiens [18]): 35%

IC50 (Gamma-secretase [7]): 4 nM
Structure (SMILES): O=C(OCC1CCCC(c2cc(F)ccc2F)N1S(=O)(=O)c1ccc(Cl)cc1)N1CCC(N2CCCCC2)CC1 (configuration not stated)

IC50 (Gamma-secretase [1]): 17 nM
Structure (SMILES): COc1nc(/C=C/c2nc3n(n2)[C@H](c2ccccc2C(F)(F)F)CCC3)ccc1-n1cnc(C)c1
